The Cmax is the highest concentration seen after dosing. By IC50 is commonly meant the midpoint of a concentration-inhibition curve. A lower IC50 goes with greater potency.

Data set [1] is described as follows: Cmax in human. The format is ADME, organism-based. The note with it: in vivo.
For data set [2], the target named is T1, Solute carrier family 22 member 2 (Homo sapiens, UniProt O15244).
T1 sequence (O15244 whole entry): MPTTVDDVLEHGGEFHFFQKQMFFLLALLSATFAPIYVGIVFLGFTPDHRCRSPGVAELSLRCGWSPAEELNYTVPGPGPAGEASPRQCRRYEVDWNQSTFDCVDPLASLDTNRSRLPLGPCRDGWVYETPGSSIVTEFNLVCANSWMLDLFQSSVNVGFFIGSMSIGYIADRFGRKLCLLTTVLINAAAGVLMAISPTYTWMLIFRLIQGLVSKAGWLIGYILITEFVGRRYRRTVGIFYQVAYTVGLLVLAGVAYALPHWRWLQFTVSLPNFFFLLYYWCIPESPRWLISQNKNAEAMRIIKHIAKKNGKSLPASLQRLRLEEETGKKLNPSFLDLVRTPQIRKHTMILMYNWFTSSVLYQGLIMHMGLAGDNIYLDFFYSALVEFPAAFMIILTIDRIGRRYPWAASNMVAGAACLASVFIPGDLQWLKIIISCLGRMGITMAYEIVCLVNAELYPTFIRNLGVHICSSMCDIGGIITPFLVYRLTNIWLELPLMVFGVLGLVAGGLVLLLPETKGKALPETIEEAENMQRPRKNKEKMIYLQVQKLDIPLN
The class given is ADME, cell-based.
Description: Inhibition of human OCT2 expressed in HEK-293-Flp-In cells incubated for 3 mins by ASP+ substrate uptake assay

Data set [3] addresses T2, Solute carrier family 22 member 1 (Homo sapiens, UniProt O15245).
T2 sequence (O15245 whole entry): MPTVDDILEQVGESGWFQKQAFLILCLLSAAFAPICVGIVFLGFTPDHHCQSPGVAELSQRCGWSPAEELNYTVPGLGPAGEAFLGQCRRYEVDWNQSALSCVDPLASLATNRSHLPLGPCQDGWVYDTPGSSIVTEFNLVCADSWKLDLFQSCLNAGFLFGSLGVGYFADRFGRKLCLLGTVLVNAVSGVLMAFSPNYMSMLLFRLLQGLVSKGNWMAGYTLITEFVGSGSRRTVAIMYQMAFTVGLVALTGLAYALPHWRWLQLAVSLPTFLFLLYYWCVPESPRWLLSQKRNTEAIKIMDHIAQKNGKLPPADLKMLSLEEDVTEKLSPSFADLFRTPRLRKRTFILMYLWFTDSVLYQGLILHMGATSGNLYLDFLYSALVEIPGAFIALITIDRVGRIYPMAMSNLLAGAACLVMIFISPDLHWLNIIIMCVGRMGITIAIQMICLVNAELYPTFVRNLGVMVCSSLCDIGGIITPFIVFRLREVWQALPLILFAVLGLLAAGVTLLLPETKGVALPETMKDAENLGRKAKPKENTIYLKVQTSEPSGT
The format is ADME, cell-based.
Description: Inhibition of human OCT1 expressed in HEK-293-Flp-In cells incubated for 3 mins by ASP+ substrate uptake assay

Data set [4] can be described thus: Protein binding in human plasma. The note with it: read-out: PPB (converted). The class given is ADME, cell-free.
The target of data set [5] is T3, Multidrug and toxin extrusion protein 2 (Homo sapiens, UniProt Q86VL8).
T3 sequence (Q86VL8 whole entry): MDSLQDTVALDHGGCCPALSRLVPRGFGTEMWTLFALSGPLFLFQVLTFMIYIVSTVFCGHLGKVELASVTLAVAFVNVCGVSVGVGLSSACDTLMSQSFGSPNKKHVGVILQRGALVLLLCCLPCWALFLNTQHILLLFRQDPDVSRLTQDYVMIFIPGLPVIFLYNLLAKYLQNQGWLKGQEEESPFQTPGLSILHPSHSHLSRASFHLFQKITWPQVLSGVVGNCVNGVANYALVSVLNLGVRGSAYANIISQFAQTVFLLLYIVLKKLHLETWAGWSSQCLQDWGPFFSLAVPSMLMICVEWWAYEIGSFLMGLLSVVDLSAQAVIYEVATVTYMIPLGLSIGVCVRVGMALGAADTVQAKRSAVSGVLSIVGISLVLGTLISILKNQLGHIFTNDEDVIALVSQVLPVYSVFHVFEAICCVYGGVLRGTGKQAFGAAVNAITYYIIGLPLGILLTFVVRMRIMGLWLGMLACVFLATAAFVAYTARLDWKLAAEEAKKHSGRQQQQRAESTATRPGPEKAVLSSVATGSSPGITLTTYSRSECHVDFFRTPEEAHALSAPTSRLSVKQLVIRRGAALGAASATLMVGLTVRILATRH
Description: Inhibition of human MATE2-K expressed in HEK-293-Flp-In cells incubated for 3 mins by ASP+ substrate uptake assay

The nature of data set [6]: cells. The conditions noted are these: Homo sapiens, 0.05 h.
Description: Inhibition of human OCT2 A270S mutant expressed in HEK-293-Flp-In cells incubated for 3 mins by ASP+ substrate uptake assay
The target of data set [7] is T4, Multidrug and toxin extrusion protein 1 (Homo sapiens, UniProt Q96FL8).
T4 sequence (Q96FL8 whole entry): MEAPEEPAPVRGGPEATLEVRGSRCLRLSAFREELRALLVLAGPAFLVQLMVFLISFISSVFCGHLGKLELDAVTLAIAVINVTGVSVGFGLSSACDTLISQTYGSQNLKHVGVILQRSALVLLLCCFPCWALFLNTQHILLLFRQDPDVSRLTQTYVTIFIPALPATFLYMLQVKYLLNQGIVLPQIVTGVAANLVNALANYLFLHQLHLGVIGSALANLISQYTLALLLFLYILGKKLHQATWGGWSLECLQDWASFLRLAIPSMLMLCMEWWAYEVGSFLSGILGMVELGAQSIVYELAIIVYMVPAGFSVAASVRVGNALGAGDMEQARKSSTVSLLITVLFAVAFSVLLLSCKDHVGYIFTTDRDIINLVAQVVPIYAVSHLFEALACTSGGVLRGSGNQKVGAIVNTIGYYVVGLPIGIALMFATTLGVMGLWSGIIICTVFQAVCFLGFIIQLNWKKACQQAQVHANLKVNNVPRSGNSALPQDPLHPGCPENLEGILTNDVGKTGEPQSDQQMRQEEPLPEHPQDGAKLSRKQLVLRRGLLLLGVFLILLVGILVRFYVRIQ
Description: Inhibition of human MATE1 expressed in HEK-293-Flp-In cells incubated for 3 mins by ASP+ substrate uptake assay

Take `CN/C(=N\CCSCc1nc[nH]c1C)NC#N` [CIMETIDINE]: in data set [1], the Cmax is 11.9 µM. The IC50 in data set [2] is 23 µM; in data set [3], more than 100 µM; in data set [5] it was 39 µM; in data set [6] it was 20 µM. In addition, in data set [4], the fraction unbound was 0.81.

Turning to `OCCN(CCO)c1nc(N2CCCCC2)c2nc(N(CCO)CCO)nc(N3CCCCC3)c2n1` [DIPYRIDAMOLE], the IC50 in data set [3] came out at 81 µM. This counts as double-digit micromolar.

With `CC(C)N(CCC(C(N)=O)(c1ccccc1)c1ccccn1)C(C)C` (centres undefined) [DISOPYRAMIDE], the fraction unbound in data set [4] is 0.5. Moreover, the IC50 in data set [7] was 66 µM; in data set [5], more than 100 µM.

In the case of `CN(C)CCCN1c2ccccc2CCc2ccccc21` [IMIPRAMINE], the IC50 was 37 µM in data set [3], 10 µM in data set [7] and more than 100 µM in data set [5]. Moreover, in data set [4], the fraction unbound was 0.1.

On to `Cc1nccn1CC1CCc2c(c3ccccc3n2C)C1=O` (centres undefined) [ONDANSETRON], for which the Cmax in data set [1] was found to be 0.13 µM. In data set [3], this compound gave an IC50 of more than 100 µM.

For the compound `Nc1c2c(nc3ccccc13)CCCC2` [TACRINE], the IC50 was 83 µM in data set [3] and more than 100 µM in data set [5]. For the same compound, the fraction unbound in data set [4] is 0.45.
